Assays:
Type in all cases: in vivo
[1] = test system: barnyardgrass (Echinochloa crus-galli); experiment: Test A preemergence, barnyardgrass; settings: 0 to 100 scale
From the text: (§1) Seeds of plant species selected from bamyardgrass (Echinochloa crus-galli), kochia (Kochia scoparia), ragweed (common ragweed, Ambrosia elatior), ryegrass, Italian (Italian ryegrass, Lolium multiflorum), foxtail, giant (giant foxtail, Setaria faberii), pigweed (Amaranthus retroflexus), crabgrass, large (large crabgrass, Digitaria sanguinalis), momingglory (Ipomoea spp.), velvetleaf (Abutilon theophrasti), wheat (Triticum aestivum), and corn (Zea mays) were planted into a blend of loam soil and sand and treated preemergence with a directed soil spray using test chemicals formulated in a non-phytotoxic solvent mixture which included a surfactant. At the same time, plants selected from these crop and weed species and also blackgrass (Alopecurus myosuroides), and galium (catchweed bedstraw, Galium aparine) were planted in pots containing the same blend of loam soil and sand and treated with postemergence applications of test chemicals formulated in the same manner. Plants ranged in height from 2 to 10 cm and were in the one- to two-leaf stage for the postemergence treatment. Treated plants and untreated controls were maintained in a greenhouse for approximately 10 days, after which time all treated plants were compared to untreated controls and visually evaluated for injury. Plant response ratings, summarized in Table A, are based on a 0 to 100 scale where 0 is no effect and 100 is complete control. A dash (-) response means no test result.

[2] = test system: kochia (Kochia scoparia); experiment: Test A preemergence, kochia; settings: 0 to 100 scale
From the text: as §1

[3] = test system: ragweed (common ragweed, Ambrosia elatior); experiment: Test A preemergence, ragweed; settings: 0 to 100 scale
From the text: as §1

[4] = test system: ryegrass, Italian (Italian ryegrass, Lolium multiflorum); experiment: Test A preemergence, ryegrass, Italian; settings: 0 to 100 scale
From the text: as §1

[5] = test system: foxtail, giant (giant foxtail, Setaria faberii); experiment: Test A preemergence, foxtail, giant; settings: 0 to 100 scale
From the text: as §1

[6] = test system: pigweed (Amaranthus retroflexus); experiment: Test A preemergence, pigweed; settings: 0 to 100 scale
From the text: as §1

[7] = test system: barnyardgrass (Echinochloa crus-galli); experiment: Test A postemergence, barnyardgrass; settings: 0 to 100 scale
From the text: as §1

[8] = test system: kochia (Kochia scoparia); experiment: Test A postemergence, kochia; settings: 0 to 100 scale
From the text: as §1

[9] = test system: ragweed (common ragweed, Ambrosia elatior); experiment: Test A postemergence, ragweed; settings: 0 to 100 scale
From the text: as §1

[10] = test system: ryegrass, Italian (Italian ryegrass, Lolium multiflorum); experiment: Test A postemergence, ryegrass, Italian; settings: 0 to 100 scale
From the text: as §1

[11] = test system: foxtail, giant (giant foxtail, Setaria faberii); experiment: Test A postemergence, foxtail, giant; settings: 0 to 100 scale
From the text: as §1

[12] = test system: pigweed (Amaranthus retroflexus); experiment: Test A postemergence, pigweed; settings: 0 to 100 scale
From the text: as §1

[13] = test system: wheat (Triticum aestivum); experiment: Test A postemergence, wheat; settings: 0 to 100 scale
From the text: as §1

[14] = test system: corn (Zea mays); experiment: Test A postemergence, corn; settings: 0 to 100 scale
From the text: as §1

[15] = test system: blackgrass (Alopecurus myosuroides); experiment: Test A postemergence, blackgrass; settings: 0 to 100 scale
From the text: as §1

[16] = test system: galium (catchweed bedstraw, Galium aparine); experiment: Test A postemergence, galium; settings: 0 to 100 scale
From the text: as §1

[17] = test system: rice (Oryza sativa); experiment: Test B flooded paddy test, rice; settings: Flood, 250 g ai/ha; scale of 0 to 100
Method: (§2) Plant species in the flooded paddy test selected from rice (Oryza sativa), sedge, umbrella (small-flower umbrella sedge, Cyperus difformis), ducksalad (Heteranthera limosa), and barnyardgrass (Echinochloa crus-galli) were grown to the 2-leaf stage for testing. At time of treatment, test pots were flooded to 3 cm above the soil surface, treated by application of test compounds directly to the paddy water, and then maintained at that water depth for the duration of the test. Treated plants and controls were maintained in a greenhouse for 13 to 15 days, after which time all species were compared to controls and visually evaluated. Plant response ratings, summarized in Table B, are based on a scale of 0 to 100 where 0 is no effect and 100 is complete control. A dash (-) response means no test result.

[18] = test system: sedge, umbrella (small-flower umbrella sedge, Cyperus difformis); experiment: Test B flooded paddy test, sedge, umbrella; settings: Flood, 250 g ai/ha; scale of 0 to 100
Method: as §2

[19] = test system: ducksalad (Heteranthera limosa); experiment: Test B flooded paddy test, ducksalad; settings: Flood, 250 g ai/ha; scale of 0 to 100
Method: as §2

[20] = test system: barnyardgrass (Echinochloa crus-galli); experiment: Test B flooded paddy test, barnyardgrass; settings: Flood, 250 g ai/ha; scale of 0 to 100
Method: as §2

| SMILES | Plant response rating, Barnyardgrass ([1]; 31 g ai/ha) | Plant response rating, Barnyardgrass ([1]; 125 g ai/ha) | Plant response rating, Kochia ([2]; 31 g ai/ha) | Plant response rating, Kochia ([2]; 125 g ai/ha) | Plant response rating, Ragweed ([3]; 31 g ai/ha) | Plant response rating, Ragweed ([3]; 125 g ai/ha) | Plant response rating, Ryegrass, Italian ([4]; 31 g ai/ha) | Plant response rating, Ryegrass, Italian ([4]; 125 g ai/ha) | Plant response rating, Foxtail, Giant ([5]; 31 g ai/ha) | Plant response rating, Foxtail, Giant ([5]; 125 g ai/ha) | Plant response rating, Pigweed ([6]; 31 g ai/ha) | Plant response rating, Pigweed ([6]; 125 g ai/ha) | Plant response rating, Barnyardgrass ([7]; 31 g ai/ha) | Plant response rating, Barnyardgrass ([7]; 125 g ai/ha) | Plant response rating, Kochia ([8]; 31 g ai/ha) | Plant response rating, Kochia ([8]; 125 g ai/ha) | Plant response rating, Ragweed ([9]; 31 g ai/ha) | Plant response rating, Ragweed ([9]; 125 g ai/ha) | Plant response rating, Ryegrass, Italian ([10]; 31 g ai/ha) | Plant response rating, Ryegrass, Italian ([10]; 125 g ai/ha) | also measured |
| --- | --- | --- | --- | --- | --- | --- | --- | --- | --- | --- | --- | --- | --- | --- | --- | --- | --- | --- | --- | --- | --- |
| FC(F)c1cc(-c2ncccc2Oc2ncc(Cl)cn2)no1 [Compound 6, 5-chloro-2-[[2-[5-(difluoromethyl)-3-isoxazolyl]-3-pyridinyl]oxy]pyrimidine] | 0 | 70 | 60 | 90 | 0 | 50 | 0 | 0 | 0 | 90 | 90 | 100 | 10 | 30 | 90 | 100 | 20 | 40 | 0 | 10 | Plant response rating, Foxtail, Giant ([11]; 31 g ai/ha): 20; Plant response rating, Foxtail, Giant ([11]; 125 g ai/ha): 40; Plant response rating, Pigweed ([12]; 31 g ai/ha): 70; Plant response rating, Pigweed ([12]; 125 g ai/ha): 100; Plant response rating, Wheat ([13]; 31 g ai/ha): 20; Plant response rating, Wheat ([13]; 125 g ai/ha): 30; Plant response rating, Corn ([14]; 31 g ai/ha): 20; Plant response rating, Corn ([14]; 125 g ai/ha): 30; Plant response rating, Blackgrass ([15]; 31 g ai/ha): 0; Plant response rating, Blackgrass ([15]; 125 g ai/ha): 20; Plant response rating, Galium ([16]; 31 g ai/ha): 50; Plant response rating, Galium ([16]; 125 g ai/ha): 70; Plant response rating, Rice [17]: 0; Plant response rating, Sedge, Umbrella [18]: 0; Plant response rating, Ducksalad [19]: 30; Plant response rating, Barnyardgrass [20]: 0 |
| Fc1cnc(Oc2cccnc2-c2cc(C(F)F)no2)nc1 [Compound 7] | 0 | 20 | 20 | 70 | 0 | 30 | 0 | 0 | 0 | 20 | 70 | 100 | 0 | 0 | 70 | 90 | 0 | 10 | 0 | 0 | Plant response rating, Foxtail, Giant ([11]; 31 g ai/ha): 0; Plant response rating, Foxtail, Giant ([11]; 125 g ai/ha): 0; Plant response rating, Pigweed ([12]; 31 g ai/ha): 20; Plant response rating, Pigweed ([12]; 125 g ai/ha): 70; Plant response rating, Wheat ([13]; 31 g ai/ha): 0; Plant response rating, Wheat ([13]; 125 g ai/ha): 20; Plant response rating, Corn ([14]; 31 g ai/ha): 0; Plant response rating, Corn ([14]; 125 g ai/ha): 0; Plant response rating, Blackgrass ([15]; 31 g ai/ha): 0; Plant response rating, Blackgrass ([15]; 125 g ai/ha): 0; Plant response rating, Galium ([16]; 31 g ai/ha): 20; Plant response rating, Galium ([16]; 125 g ai/ha): 50; Plant response rating, Rice [17]: 0; Plant response rating, Sedge, Umbrella [18]: 0; Plant response rating, Ducksalad [19]: 50; Plant response rating, Barnyardgrass [20]: 0 |
| [O-][n+]1cccc(Oc2ncc(Cl)cn2)c1-c1cc(C(F)F)on1 [Compound 8, 5-chloro-2-[[2-[5-(difluoromethyl)-3-isoxazolyl]-1-oxido-3-pyridinyl]oxy]pyrimidine] | 0 | 0 | 0 | 40 | 0 | 0 | 0 | 0 | 0 | 10 | 40 | 90 | 0 | 10 | 40 | 70 | 30 | 50 | 0 | 0 | Plant response rating, Foxtail, Giant ([11]; 31 g ai/ha): 0; Plant response rating, Foxtail, Giant ([11]; 125 g ai/ha): 10; Plant response rating, Pigweed ([12]; 31 g ai/ha): 50; Plant response rating, Pigweed ([12]; 125 g ai/ha): 70; Plant response rating, Wheat ([13]; 31 g ai/ha): 10; Plant response rating, Wheat ([13]; 125 g ai/ha): 20; Plant response rating, Corn ([14]; 31 g ai/ha): 0; Plant response rating, Corn ([14]; 125 g ai/ha): 20; Plant response rating, Blackgrass ([15]; 31 g ai/ha): 0; Plant response rating, Blackgrass ([15]; 125 g ai/ha): 10; Plant response rating, Galium ([16]; 31 g ai/ha): 40; Plant response rating, Galium ([16]; 125 g ai/ha): 60; Plant response rating, Rice [17]: 0; Plant response rating, Sedge, Umbrella [18]: 0; Plant response rating, Ducksalad [19]: 40; Plant response rating, Barnyardgrass [20]: 0 |
| [O-][n+]1cccc(Oc2ncc(F)cn2)c1-n1cc(Cl)cn1 [Compound 9] | 0 | 0 | 0 | 0 | 0 | 0 | 0 | 0 | 0 | 0 | 0 | 20 | 0 | 0 | 10 | 50 | 10 | 30 | 0 | 0 | Plant response rating, Foxtail, Giant ([11]; 31 g ai/ha): 0; Plant response rating, Foxtail, Giant ([11]; 125 g ai/ha): 0; Plant response rating, Pigweed ([12]; 31 g ai/ha): 30; Plant response rating, Pigweed ([12]; 125 g ai/ha): 50; Plant response rating, Wheat ([13]; 31 g ai/ha): 0; Plant response rating, Wheat ([13]; 125 g ai/ha): 0; Plant response rating, Corn ([14]; 31 g ai/ha): 0; Plant response rating, Corn ([14]; 125 g ai/ha): 0; Plant response rating, Blackgrass ([15]; 31 g ai/ha): 0; Plant response rating, Blackgrass ([15]; 125 g ai/ha): 0; Plant response rating, Galium ([16]; 31 g ai/ha): 10; Plant response rating, Galium ([16]; 125 g ai/ha): 30; Plant response rating, Rice [17]: 0; Plant response rating, Sedge, Umbrella [18]: 0; Plant response rating, Ducksalad [19]: 0; Plant response rating, Barnyardgrass [20]: 0 |
| [O-][n+]1cccc(Oc2ncc(Cl)cn2)c1-n1cc(Br)cn1 [Compound 11] | – | – | – | – | – | – | – | – | – | – | – | – | – | – | – | – | – | – | – | – | Plant response rating, Barnyardgrass ([1]; 1000 g ai/ha): 0; Plant response rating, Kochia ([2]; 1000 g ai/ha): 30; Plant response rating, Ragweed ([3]; 1000 g ai/ha): 30; Plant response rating, Ryegrass, Italian ([4]; 1000 g ai/ha): 0; Plant response rating, Foxtail, Giant ([5]; 1000 g ai/ha): 0; Plant response rating, Pigweed ([6]; 1000 g ai/ha): 100; Plant response rating, Barnyardgrass ([7]; 1000 g ai/ha): 0; Plant response rating, Kochia ([8]; 1000 g ai/ha): 60; Plant response rating, Ragweed ([9]; 1000 g ai/ha): 20; Plant response rating, Ryegrass, Italian ([10]; 1000 g ai/ha): 0; Plant response rating, Foxtail, Giant ([11]; 1000 g ai/ha): 0; Plant response rating, Pigweed ([12]; 1000 g ai/ha): 90; Plant response rating, Wheat ([13]; 1000 g ai/ha): 0; Plant response rating, Corn ([14]; 1000 g ai/ha): 0; Plant response rating, Blackgrass ([15]; 1000 g ai/ha): 10; Plant response rating, Galium ([16]; 1000 g ai/ha): 40 |

Source: patent US11006631B2, “Substituted pyrimidinyloxy pyridine derivatives as herbicides” (FMC Corporation, priority 2015, dated 2021)
